What all share (assay type): cell-based
The test system of test [1] is T47D cells. Nature of the test: Cell antiproliferative activity assay (CCK-8), T47D. As to conditions: Homo sapiens, 72 h, breast cancer cell line T47D, incubation for 3 days. As for the experimental part:
BRK-BaF3, WT-BaF3, WEHI cell line, and breast cancer cell line T47D were cultured using RPMI 1640 Basal medium or DMEM (Dulbecco's Modified Eagle Medium) (Shanghai Peiyuan Biotechnology, L220KJ), supplemented with 10% FBS (Gibco, REF 10099-141C) and 1% P/S (Shanghai Peiyuan Biotechnology, S110JV), in an incubator (Thermo 3020) at 37°C with 5% CO2. Cell viability was above 95%. Cells were passaged at a 3:1 ratio every 3-4 days. For WT-BaF3 cells, WEHI cells were first cultured, and their culture supernatant was filtered through a 0.22 µm filter. This supernatant was added at 10% to the regular culture medium to supplement IL-3 required for WT-BaF3 cell proliferation, which served as the culture medium for WT-BaF3. For testing, cells were first collected and counted, then prepared into a cell suspension at 100,000 cells/mL and plated at 100 µL per well. Drug concentrations started from 10 µM and were serially diluted 3:1. After incubation for 3 days, 20 µL of CCK-8 detection reagent (Targetmol C005) was added to each well. After incubation for 2-4 hours, OD450 was measured using a microplate reader (Varioskan LUX, Thermo Scientific). After subtracting the blank background, the curve was fitted and the IC50 was calculated using XLfit software.
In addition, the following table exemplarily lists the IC50 values of some compounds of the present invention against T47D cells.

Test [2] relates to WT-BaF3 cells. Nature of the test: Cell antiproliferative activity assay (CCK-8), WT-BaF3 (broad-spectrum cytotoxicity). The note with it: 72 h; WT-BaF3 cells (IL-3 supplemented), CCK-8, 3 days incubation. The procedure, abridged: (§1)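 Growth inhibition over 3 days, with compound serially diluted 3-fold from a 10 µM top concentration. Cells seeded at 100,000 cells/mL; WT-BaF3 medium carried 10% WEHI supernatant as the IL-3 source. Viability read by CCK-8 OD450 after 2-4 h; IC50 from blank-subtracted curve fit.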

In test [3] the test system is BRK-BaF3 cells. Nature of the test: Cell antiproliferative activity assay (CCK-8), BRK-BaF3. The note with it: 72 h, CCK-8, 3 days incubation. The method, boiled down: as §1

Molecules are shown by their SMILES. Where only a bound is given, the exact number is not on record here.

In the case of `Cc1c[nH]c(=O)cc1-c1cc(C(C)C)c2nc(Nc3cn(C)nc3C(F)F)ncc2c1` [III-4], the figures for the IC50 in test [1], in test [2] and in test [3] were 500 to 1000 nM, 500 to 2500 nM and at most 20 nM, respectively.

As for `[2H]C([2H])([2H])n1cc(Nc2ncc3cc(-c4cc(=O)[nH]cc4C)cc(C(C)C)c3n2)c(C)n1` [III-9], the IC50 (in general, the point on the concentration scale where inhibition reaches its midpoint) in test [1] was at most 500 nM; in test [2], 500 to 2500 nM; in test [3], at most 20 nM.

Turning to `Cc1c[nH]c(=O)cc1-c1cc(C(C)C)c2nc(Nc3cnn(C4CCN(C)CC4)c3C)ncc2c1` [III-14], the IC50 in test [1] is 500 to 1000 nM; in test [2], 500 to 2500 nM; in test [3], at most 20 nM.

As to `Cc1nn(C)cc1Nc1ncc2cc(-c3cn(C)nc3C)cc(C(C)C)c2n1` [III-87], the figures for the IC50 in test [1], in test [2] and in test [3] were at most 500 nM, 100 to 500 nM and at most 20 nM, respectively.

`Cc1nn(C)cc1Nc1ncc2cc(-c3c[nH]nc3C)cc(C(C)C)c2n1` [III-88]: the IC50 was 500 to 1000 nM in test [1], 500 to 2500 nM in test [2] and at most 20 nM in test [3].

As to `Cc1ccnnc1-c1cc(C(C)C)c2nc(Nc3cn(C)nc3C)ncc2c1` [III-90], the IC50 in test [1] is at most 500 nM; in test [2], 100 to 500 nM; in test [3] it was at most 20 nM.

Turning to `Cc1nn(C)cc1Nc1ncc2cc(-c3cncnc3C)cc(C(C)C)c2n1` [III-92], the figures for the IC50 in test [1], in test [2] and in test [3] were at most 500 nM, 100 to 500 nM and at most 20 nM, respectively.

In the case of `Cc1nn(C)cc1Nc1ncc2cc(-c3nccnc3C)cc(C(C)C)c2n1` [III-99], the values for the IC50 in test [1], in test [2] and in test [3] were at most 500 nM, 500 to 2500 nM and at most 20 nM, respectively.

For `Cc1nccnc1-c1cc(C(C)C)c2nc(Nc3cn(C)nc3Cl)ncc2c1` [III-101], the IC50 in test [1] was 500 to 1000 nM; in test [2], 500 to 2500 nM; in test [3], at most 20 nM.

Turning to `Cc1nccnc1-c1cc(C(C)C)c2nc(Nc3cn(C)nc3C(F)F)ncc2c1` [III-102], the results for the IC50 in test [1], in test [2] and in test [3] were 500 to 1000 nM, over 2500 nM and at most 20 nM, respectively.

On to `[2H]C([2H])([2H])n1cc(Nc2ncc3cc(-c4nccnc4C)cc(C(C)C)c3n2)c(C)n1` [III-103], for which the IC50 was at most 500 nM in test [1], 100 to 500 nM in test [2] and at most 20 nM in test [3].

For `Cc1ccncc1-c1cc(C(C)C)c2nc(Nc3cn(C)nc3C)ncc2c1` [III-120], the results for the IC50 in test [1], in test [2] and in test [3] were at most 500 nM, 100 to 500 nM and at most 20 nM, respectively.

On to `Cc1ccc(C#N)cc1-c1cc(C(C)C)c2nc(Nc3cn(C)nc3C)ncc2c1` [III-130], for which the figures for the IC50 in test [1], in test [2] and in test [3] were at most 500 nM, 500 to 2500 nM and at most 20 nM, respectively.

Turning to `Cc1nccnc1-c1cc(C2CC2)c2nc(Nc3cnn(CC(=O)N(C)C)c3)ncc2c1` [III-132], the IC50 is at most 500 nM in test [1], 500 to 2500 nM in test [2] and at most 20 nM in test [3].

For the origin of these results see patent EP4803513A1, “SUBSTITUTED QUINAZOLINE COMPOUND, PREPARATION METHOD THEREFOR, PHARMACEUTICAL COMBINATION THEREOF, AND USE THEREOF” (Hongyun Biotech Co., Ltd., priority 2023, dated 2025).
